Source: patent US20030187261A1, “Purine derivatives, process for their preparation and use thereof” (priority 2000, published 2003)
Entries after “also recorded” stand apart in the source; their conditions may differ. Read-outs that look alike come from different tables or passages of the source.

How the values were obtained:
CDC2 = biological target: T1, CDC2 (Homo sapiens, UniProt P06493); experiment: p34cdc2 (CDC2) kinase inhibition assay, histone H1 substrate; assay type: biochemical; settings: Table 5, CDC2 activity in cell free system
T1 construct: made in house; host or cells: Sf9 insect cells, baculovirus co-infection
T1 sequence (P06493 whole entry, species assumed): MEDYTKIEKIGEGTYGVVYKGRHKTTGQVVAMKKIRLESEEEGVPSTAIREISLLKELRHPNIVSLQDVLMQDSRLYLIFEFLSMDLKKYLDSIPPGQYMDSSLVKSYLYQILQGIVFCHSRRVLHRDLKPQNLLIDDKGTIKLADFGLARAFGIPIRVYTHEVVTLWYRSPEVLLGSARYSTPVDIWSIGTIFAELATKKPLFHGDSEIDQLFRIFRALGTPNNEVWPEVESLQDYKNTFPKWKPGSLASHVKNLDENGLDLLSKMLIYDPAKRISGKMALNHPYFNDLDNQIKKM
T1 sequence (P14635 whole entry partner, species assumed): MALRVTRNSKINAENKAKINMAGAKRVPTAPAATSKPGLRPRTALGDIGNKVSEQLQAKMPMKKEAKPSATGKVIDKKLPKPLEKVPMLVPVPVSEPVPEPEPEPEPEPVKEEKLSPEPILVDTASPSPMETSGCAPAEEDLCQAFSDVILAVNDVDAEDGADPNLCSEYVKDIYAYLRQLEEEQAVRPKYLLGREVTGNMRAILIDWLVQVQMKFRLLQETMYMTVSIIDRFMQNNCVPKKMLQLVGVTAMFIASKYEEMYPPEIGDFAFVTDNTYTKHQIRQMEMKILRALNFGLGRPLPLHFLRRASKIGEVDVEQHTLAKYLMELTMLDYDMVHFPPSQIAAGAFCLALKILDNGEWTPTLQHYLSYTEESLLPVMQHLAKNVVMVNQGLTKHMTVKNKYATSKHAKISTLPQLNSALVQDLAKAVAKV

KG1 = experiment: clonogenic output of KG1 in methylcellulose; assay type: cell-based, human; settings: 25 μM, 14 days
Description: Cell lines: Human leukemic cell lines were obtained from the American Type Culture Collection (ATCC, Rockville, Md., USA). They were cultured in Iscove's Modified Dulbecco's Medium (IMDM) supplemented with 10% heat inactivated fetal calf serum (FCS), 200 U/ml penicillin, 200 μg/ml streptomycin and 1 μg/ml amphotericin B. Cells were cultured in a 5% CO2-95% air fully humidified incubator. For effects on clonogenic output, 1000 cells/well were plated in duplicate in methylcellulose (0.9%), supplemented with 20% FCS and cultured for 14 days.
Clonogenic output of KG1 was tested in methylcellulose with 25 μM of some of the novel compounds.

[1] = system: CD34+ hematopoietic progenitors (HPC) from adult bone marrow; experiment: myeloid colony-forming unit (CFU) assay; assay type: cell-based, human; settings: for IC50: 14 days, methylcellulose, total colony output; for output of the different types of myeloid colonies (CFU-E, CFU-G and CFU-M): scored differentially
β-adrenergic receptors = experiment: isoproterenol-induced intracellular cAMP synthesis in rat C6 glioma; assay type: cell-based; settings: cAMP induced by 5 μM (−) isoproterenol
Description: Rat C6 glioma (ATCC N° CCL107) was cultivated in monolayer in serum-free chemically defined medium containing Ham's F10/minimal essential medium (1:1 vol/vol), 2 mM L-glutamine, 1% (vol/vol) minimal essential medium vitamins (100×), 1% (vol/vol) minimal essential medium nonessential amino acids (100×), 100 U/ml penicillin, 100 μg/ml streptomycin and 30 nM sodium selenite. Incubation was at 37° C. in a humidified atmosphere. Assays were performed in the logaritmic growth phase at a density of 2.5×10^5 cells/cm^2. Intracellular cAMP synthesis was induced by addition of 5 μM (−) isoproterenol. After 30 min incubation at 37° C. the medium was removed and the cellular amount of cAMP determined using the cAMP-enzyme immunoassay kit of Amersham. The IC50 is determined from a dose-response curve in duplicate. The effect of seven purine-analogs was measured after simultaneous addition with isoproterenol.
As P2Y1-like and A2 purinergic receptors, negatively and positively coupled to adenylate cyclase respectively, are present on rat C6 glioma the modulation of the synthesis of cAMP may be due to inhibition of the activation of β-adrenergic receptors by isoproterenol or to activation of purinergic receptors.

[2] = system: PHA-stimulated lymphocytes (PBMC); experiment: cell number of PHA-stimulated lymphocytes (PBMC), flow cytometry; assay type: cell-based, human; settings: 96 hours, in the presence of IL-2
Description: Human peripheral blood mononuclear cells were isolated by density gradient (Ficoll-Hypaque) (LSM, ICN Biomedicals Inc.). PBMC were stimulated with 5 μg/ml phytohemaglutinin A (PHA) (Sigma) during 24-48 hours in IMDM supplemented with 10% FCS (IMDM/10% FCS) at 37° C. After washing off the PHA, PBMC were incubated with interleukin-2 (IL-2) (10 U/ml) (Genzyme).
Cells were plated at 10000 per well in 200 μl IMDM medium and incubated with 0-50 μM of the compounds of the invention (Table 5), by addition of the drugs directly to the culture medium and incubated at 37° C. for 96 hours. Absolute cell number was determined by addition of a known concentration of Fluoresbrite microspheres (FITC) (Polysciences, Inc.). The absolute number of cells per well was calculated as: {(total number of beads added per well)/(number of beads measured)}×(number of measured cells in the gate of interest). All analyses were performed with a FACScan (BD), using CELLQuest software (Becton Dickinson).
The novel compounds were tested for cytotoxicity on PHA-stimulated lymphocytes (PBMC), as one of the normal counterparts of the cell lines. Cells were grown for 96 hours in the presence of IL-2 and different concentrations of the novel compounds and cell number was counted on the flow cytometer.

[3] = system: myeloid leukemia KG1 cell line; experiment: cell growth of KG1 cell line, flow cytometric cell count; settings: for IC50: read-out: KGI IC50
Description: The response of the myeloid leukemia KG1 and T-lymphocyte leukemia Molt3 cell lines to the cytostatic effect of the novel compounds was determined using the above-mentioned standardized bead suspension that was used to determine the absolute cell number by flow cytometric (FCM) measurement. Cells were grown in the presence of increasing concentrations of the compounds of the invention.
To determine reversibility of the effects of the new compounds, cells were plated at 10,000 per well and exposed to 0-50 μM of the composed, either continuously for 7 days (control) or only for 6 hours. In the latter case, cells were washed after 6 hours in phosphate-buffered-saline (PBS) (Life Technologies) and reseeded into drug-free medium for 7 days.

Compound | IC50 (CDC2) [µM] | Colony output vs. control cultures without novel compound (KG1) [%] | IC50 [1] [µM] | output of the different types of myeloid colonies (CFU-E, CFU-G and CFU-M) [1] | Effect: fold activation (β-adrenergic receptors; 50 μM) | IC50 [2] [µM] | cell number after 6 hours of exposure, wash and 7 days in drug-free medium ([3]; KG1, compared to control without novel compounds) | IC50 ([3]; 96 hours of culture) [µM] | IC50 ([1]; Homo sapiens, 336 h) [µM] | Effect (β-adrenergic receptors; 30 min, rat C6 glioma) | IC50 (β-adrenergic receptors; 30 min, read-out: I50) [µM] | CC50 ([2]; Homo sapiens, Lymphocyte, read-out: Lymphocytes IC50) [µM] | effectiveness on KG1 compared with normal PBMC ([3]; FIG. 2) | IC50 ([3]; Homo sapiens, KG-1, 96 h) [µM]
2-(3-aminoethylamino)-6-(3,3-dihydroxybenzyl)amino-9-isopropylpurine [P28] | 1.5 | 0 | 8.5 | significantly lower colony output | 1.3-fold activation | 9 ± 2.2 | (some) recovery of cell number | 16 ± 1.3 | – | – | – | – | – | –
CCCCCCNc1nc(NC(CO)c2ccccc2)c2ncn(C(C)C)c2n1 (centres unmarked) [P23, 2-(hexylamino)-6-(1-phenyl-2-hydroxyethylamino)-9-isopropylpurine] | 60 | 19 | – | significantly lower colony output | – | – | – | – | > 50 | inhibition | 15 ± 2 | 15 ± 2 | significantly more effective on KG1 than on normal PBMC; also recorded: significantly more effective on KG1 than on normal-PBMC | 8 ± 0.6
